Assays:
Fms1 = Fms1 (Saccharomyces cerevisiae, UniProt P50264); assay: Substrate kinetics with recombinant Fms1 (HPLC of reaction products);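 note: recombinant polyamine oxidases incubated with substrate, product amines (putrescine, 1,3-diaminopropane or butane-1,3-diamine) quantified by HPLC after post-column o-phthalaldehyde derivatization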
Protocol: HPLC with post-column o-phthalaldehyde-derivatization was used to determine the concentrations of the reaction products Put and 1,3-diaminopropane (DAP) or butane-1,3-diamine respectively as described in [30]. Fms1 activity was determined essentially as described for human recombinant APAO, but reactions were carried out in 100 mM Glycine-NaOH buffer at pH 9.0 in a water bath at +25°C [29, 30].
The reactions were carried out in 1 triplicate at pH 9.0 in 100 mM Glycine-NaOH at +25°C.
values for N -Ac-MeSpd enantiomers were determined by using substrate concentrations of 25, 50,
for Rac-MeSpd 30 min, (R)-MeSpd 20 min and (S)-MeSpd 40 minutes.
The reactions were carried out in triplicate at pH 9.0 in 100 mM Glycine-NaOH at +25°C.
values for MeSpd enantiomers were determined by using substrate concentrations of 100, 300, 600,
1000, 2000 and 4000 M. Recombinant Fms1 was 3.8 g/reaction and the incubation time 60
incubated for 30 min (half of the reaction time of an ordinary sample). E1 cleavage was monitored
by HPLC by measuring Put formation and E2 cleavage by determining butane-1,3-diamine content.

human recombinant APAO = target: T1, human recombinant APAO (Homo sapiens, UniProt Q6QHF9); conditions: cited from earlier work
T1 construct: made in house

SMOX = SMOX (Homo sapiens, UniProt Q9NWM0); design: made in house; method as in PMID 17901051, PMID 16354669; conditions: cited from earlier work
Chain of SMOX (Q9NWM0 whole entry): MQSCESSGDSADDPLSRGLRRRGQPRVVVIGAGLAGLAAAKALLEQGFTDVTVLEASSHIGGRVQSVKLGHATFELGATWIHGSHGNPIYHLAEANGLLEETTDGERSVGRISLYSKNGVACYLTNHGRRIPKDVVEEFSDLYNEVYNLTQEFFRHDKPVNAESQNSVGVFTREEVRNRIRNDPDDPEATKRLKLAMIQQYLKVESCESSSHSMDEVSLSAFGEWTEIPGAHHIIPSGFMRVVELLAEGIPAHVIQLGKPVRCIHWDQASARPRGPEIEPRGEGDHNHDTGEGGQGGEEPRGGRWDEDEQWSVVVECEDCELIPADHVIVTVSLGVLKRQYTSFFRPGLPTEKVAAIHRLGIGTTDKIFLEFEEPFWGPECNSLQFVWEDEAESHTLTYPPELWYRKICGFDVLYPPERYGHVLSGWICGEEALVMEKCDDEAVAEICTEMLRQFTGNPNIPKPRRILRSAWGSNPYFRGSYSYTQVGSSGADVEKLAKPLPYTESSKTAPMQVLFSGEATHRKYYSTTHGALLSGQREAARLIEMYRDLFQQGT

[1] = system: amine oxidases in rat liver homogenates; assay: Degradation in rat liver supernatant; type: in vitro ADME; conditions: 20 μM MDL 72527, 5 min preincubation
Protocol: A Wistar rat liver was frozen in liquid nitrogen. The liver was homogenized (1+3 w/v) with Teflon potter in buffer containing 25 mM Tris/HCl pH 7.4, 1 mM DTT and 0.1 mM EDTA. Resulting homogenate was centrifuged at 12000×g for 30 min at +4°C. Supernatant was divided into two portions and treated as follows: (A) incubated for 5 min at +37°C in a water bath, (B) supplemented with 20 μM MDL 72527 and incubated for 5 min at +37°C in a water bath to inactivate APAO and SMOX. A 20-μl aliquot of supernatant A or B was added in 100 mM Glycine-NaOH pH 9.5, 5 mM DTT with or without 100 μM of studied drug in a total volume of 180 μl. After 10-min incubation at +37°C, 20 μl of 50% sulphosalicylic acid (SSA) containing 100 μM diaminoheptane (DAH) was added to the reaction mixture. The samples were assayed with HPLC as described in [30].

Chain of Fms1 (P50264 whole entry): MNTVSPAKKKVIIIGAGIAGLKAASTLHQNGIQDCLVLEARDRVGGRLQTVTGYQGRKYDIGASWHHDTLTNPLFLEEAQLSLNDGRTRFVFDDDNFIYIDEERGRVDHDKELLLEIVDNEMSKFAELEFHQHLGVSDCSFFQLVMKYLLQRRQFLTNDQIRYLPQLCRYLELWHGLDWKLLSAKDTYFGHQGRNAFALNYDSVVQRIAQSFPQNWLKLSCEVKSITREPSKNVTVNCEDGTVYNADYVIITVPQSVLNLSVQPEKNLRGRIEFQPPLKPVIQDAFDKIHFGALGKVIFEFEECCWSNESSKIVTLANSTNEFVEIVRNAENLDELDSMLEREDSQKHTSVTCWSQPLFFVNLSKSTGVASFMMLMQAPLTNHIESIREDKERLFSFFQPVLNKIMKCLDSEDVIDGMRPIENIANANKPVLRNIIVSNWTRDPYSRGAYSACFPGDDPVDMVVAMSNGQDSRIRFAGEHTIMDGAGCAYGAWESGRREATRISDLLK
T1 sequence (Q6QHF9 whole entry): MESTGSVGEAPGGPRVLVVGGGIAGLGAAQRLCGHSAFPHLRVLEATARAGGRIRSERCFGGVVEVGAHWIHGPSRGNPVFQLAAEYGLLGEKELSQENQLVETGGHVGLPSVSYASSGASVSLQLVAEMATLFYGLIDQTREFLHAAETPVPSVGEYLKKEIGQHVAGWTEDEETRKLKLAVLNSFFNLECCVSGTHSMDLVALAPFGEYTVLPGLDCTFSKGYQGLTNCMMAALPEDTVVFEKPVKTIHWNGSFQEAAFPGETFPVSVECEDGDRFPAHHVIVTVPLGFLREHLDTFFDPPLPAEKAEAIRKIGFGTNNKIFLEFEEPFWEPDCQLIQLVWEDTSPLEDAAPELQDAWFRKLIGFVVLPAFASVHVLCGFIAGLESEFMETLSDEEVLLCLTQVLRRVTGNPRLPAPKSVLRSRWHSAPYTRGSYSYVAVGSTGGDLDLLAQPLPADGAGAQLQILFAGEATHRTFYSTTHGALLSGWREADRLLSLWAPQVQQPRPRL

SMILES | Specificity constant ratio SS/RR (Fms1; Fms1, (S,S)-Me2Spm vs (R,R)-Me2Spm) | Specificity constant ratio SS/Spm (Fms1; Fms1, (S,S)-Me2Spm vs Spm) | Specificity constant ratio SS/RR (human recombinant APAO; (S,S)-Me2Spm vs (R,R)-Me2Spm) | Specificity constant ratio SS/Spm (human recombinant APAO; (S,S)-Me2Spm vs Spm) | Specificity constant ratio SS/RR (SMOX; (S,S)-Me2Spm vs (R,R)-Me2Spm) | Specificity constant ratio SS/Spm (SMOX; (S,S)-Me2Spm vs Spm) | inhibition of analogue degradation in rat liver supernatant [1]
CC(N)CCNCCCCNCCC(C)N [(S,S)-Me2Spm, 2,13-diamino-5,10-diazatetradecane] | 3.9 | 0.07 | 28 | 7.1 | 454 | 2.1 | 
C=C=CCNCCCCNCC=C=C [MDL72527] |  |  |  |  |  |  | Complete inhibition

From publication PMC6131205, “Controlling the regioselectivity and stereospecificity of FAD-dependent polyamine oxidases with the use of amine-attached guide molecules as conformational modulators” (Bioscience Reports, 2018)
